Reference: patent US20250382287A1, “PHARMACEUTICALLY ACCEPTABLE SALT AND CRYSTAL FORM OF NITROGEN-CONTAINING BRIDGE HETEROCYCLIC DERIVATIVE, AND METHOD FOR PREPARING SAME” (JIANGSU HENGRUI PHARMACEUTICALS CO., LTD., priority 2022, published 2025)

Tests used:
[1] = Influencing factor stability (open flasks, light, high temperature, high humidity, 30 days)
[2] = Long-term/accelerated stability (sealed, 25° C./60% RH and 40° C./75% RH)
[3] = DVS (dynamic vapor sorption) hygroscopicity testing; format: physicochemical; settings: for hygroscopic weight gain under normal storage conditions / hygroscopic weight gain under accelerated experimental conditions / hygroscopic weight gain under extreme conditions: DVS; for hygroscopic weight gain under normal storage conditions: 25° C. and 60% RH; for hygroscopic weight gain under accelerated experimental conditions: 70% RH; for hygroscopic weight gain under extreme conditions: 90% RH; for crystal form re-identification after DVS testing: XRPD after DVS
Procedure: DVS refers to dynamic vapor sorption: Surface Measurement Systems instrinsic was adopted; the humidity started at 50%, the humidity range investigated was 0%-95%, and the humidity was increased in increments of 10%; the criterion was that each gradient mass change dM/dT is less than 0.002%, TMAX 360 min, two cycles.

[4] = Light exposure (4500 Lux), 5 days, open flask
[5] = Light exposure (4500 Lux), 10 days, open flask
[6] = Light exposure (4500 Lux), 30 days, open flask
[7] = light exposure (4500 Lux), 40° C. and 60° C., high humidity RH 75% and 92.5%, 30 days
[8] = 25° C., 60% RH, sealed, 1 month
[9] = 25° C., 60% RH, sealed, 2 months
[10] = 25° C., 60% RH, sealed, 3 months
[11] = 25° C., 60% RH, sealed, 6 months
[12] = 25° C./60% RH and 40° C./75% RH, 6 months
[13] = 40° C., 75% RH, sealed, 1 month
[14] = 40° C., 75% RH, sealed, 2 months
[15] = 40° C., 75% RH, sealed, 3 months
[16] = 40° C., 75% RH, sealed, 6 months
[17] = Light exposure (4500 Lux), 12 days, open flask

CCO[C@H]1C[C@H]2CC[C@@](c3ccc(C(=O)O)cc3)(C1)N2Cc1c(OC)cc(C)c2[nH]ccc12.O=C(O)/C=C/C(=O)O [crystal form I of the fumarate, 4-((1S,3S,5R)-3-ethoxy-8-((5-methoxy-7-methyl-1H-indol-4-yl)methyl)-8-azabicyclo[3.2.1]octan-1-yl)benzoic acid-fumarate]
Color and state ([1]; 40° C., 5 days, open flask): White solid
Purity % ([1]; 40° C., 5 days, open flask): 99.7%
Salt form ([1]; 40° C., 5 days, open flask): No change
Color and state ([1]; 40° C., 10 days, open flask): White solid
Purity % ([1]; 40° C., 10 days, open flask): 99.6%
Salt form ([1]; 40° C., 10 days, open flask): No change
Color and state ([1]; 40° C., 30 days, open flask): White solid
Purity % ([1]; 40° C., 30 days, open flask): 99.3%
Salt form ([1]; 40° C., 30 days, open flask): No change
Color and state ([1]; 60° C., 5 days, open flask): White solid
Purity % ([1]; 60° C., 5 days, open flask): 99.8%
Salt form ([1]; 60° C., 5 days, open flask): No change
Color and state ([1]; 60° C., 10 days, open flask): White solid
Purity % ([1]; 60° C., 10 days, open flask): 99.7%
Salt form ([1]; 60° C., 10 days, open flask): No change
Color and state ([1]; 60° C., 30 days, open flask): White solid
Purity % ([1]; 60° C., 30 days, open flask): 99.5%
Salt form ([1]; 60° C., 30 days, open flask): No change
Color and state ([1]; 75% RH, 5 days, open flask): White solid
Purity % ([1]; 75% RH, 5 days, open flask): 100.0%
Salt form ([1]; 75% RH, 5 days, open flask): No change
Color and state ([1]; 75% RH, 10 days, open flask): White solid
Purity % ([1]; 75% RH, 10 days, open flask): 99.9%
Salt form ([1]; 75% RH, 10 days, open flask): No change
Color and state ([1]; 75% RH, 30 days, open flask): White solid
Purity % ([1]; 75% RH, 30 days, open flask): 100.0%
Salt form ([1]; 75% RH, 30 days, open flask): No change
Color and state ([1]; 92.5% RH, 5 days, open flask): White solid
Purity % ([1]; 92.5% RH, 5 days, open flask): 99.9%
Salt form ([1]; 92.5% RH, 5 days, open flask): No change
Color and state ([1]; 92.5% RH, 10 days, open flask): White solid
Purity % ([1]; 92.5% RH, 10 days, open flask): 99.9%
Salt form ([1]; 92.5% RH, 10 days, open flask): No change
Color and state ([1]; 92.5% RH, 30 days, open flask): White solid
Purity % ([1]; 92.5% RH, 30 days, open flask): 99.9%
Salt form ([1]; 92.5% RH, 30 days, open flask): No change
Color and state ([1]; Initial, 0 days): White solid
Purity % ([1]; Initial, 0 days): 100.0%
Salt form ([1]; Initial, 0 days): Crystal form I
Color and state [1, 4]: White solid
Purity % [1, 4]: 100.0%
Salt form [1, 4]: No change
Color and state [1, 5]: White solid
Purity % [1, 5]: 99.9%
Salt form [1, 5]: No change
Color and state [1, 6]: White solid
Purity % [1, 6]: 99.5%
Salt form [1, 6]: No change
chemical stability [1, 7]: good
physical stability [1, 7]: good
Purity % [2, 8]: 99.9%
Salt form [2, 8]: No change
Purity % [2, 9]: 100.0%
Salt form [2, 9]: No change
Purity % [2, 10]: 100.0%
Salt form [2, 10]: No change
Purity % [2, 11]: 99.9%
Salt form [2, 11]: No change
chemical stability [2, 12]: good
physical stability [2, 12]: good
Purity % [2, 13]: 99.9%
Salt form [2, 13]: No change
Purity % [2, 14]: 99.9%
Salt form [2, 14]: No change
Purity % [2, 15]: 99.9%
Salt form [2, 15]: No change
Purity % [2, 16]: 99.8%
Salt form [2, 16]: No change
Purity % ([2]; Initial): 100.0%
Salt form ([2]; Initial): Crystal form I
hygroscopic weight gain under normal storage conditions [3]: about 0.51%
hygroscopic weight gain under accelerated experimental conditions [3]: about 0.60%
hygroscopic weight gain under extreme conditions [3]: about 0.82%
crystal form re-identification after DVS testing [3]: did not change

CCO[C@H]1C[C@H]2CC[C@@](c3ccc(C(=O)O)cc3)(C1)N2Cc1c(OC)cc(C)c2[nH]ccc12.O=P(O)(O)O [crystal form II of the phosphate, 4-((1S,3S,5R)-3-ethoxy-8-((5-methoxy-7-methyl-1H-indol-4-yl)methyl)-8-azabicyclo[3.2.1]octan-1-yl)benzoic acid-phosphate]
Color and state ([1]; 40° C., 5 days, open flask): White solid
Salt form ([1]; 40° C., 5 days, open flask): No change
Color and state ([1]; 40° C., 12 days, open flask): White solid
Salt form ([1]; 40° C., 12 days, open flask): No change
Color and state ([1]; 40° C., 30 days, open flask): White solid
Salt form ([1]; 40° C., 30 days, open flask): No change
Color and state ([1]; 60° C., 5 days, open flask): White solid
Salt form ([1]; 60° C., 5 days, open flask): No change
Color and state ([1]; 60° C., 12 days, open flask): White solid
Salt form ([1]; 60° C., 12 days, open flask): No change
Color and state ([1]; 60° C., 30 days, open flask): White solid
Salt form ([1]; 60° C., 30 days, open flask): No change
Color and state ([1]; 75% RH, 5 days, open flask): White solid
Salt form ([1]; 75% RH, 5 days, open flask): No change
Color and state ([1]; 75% RH, 12 days, open flask): White solid
Salt form ([1]; 75% RH, 12 days, open flask): No change
Color and state ([1]; 75% RH, 30 days, open flask): White solid
Salt form ([1]; 75% RH, 30 days, open flask): No change
Color and state ([1]; 92.5% RH, 5 days, open flask): White solid
Salt form ([1]; 92.5% RH, 5 days, open flask): No change
Color and state ([1]; 92.5% RH, 12 days, open flask): White solid
Salt form ([1]; 92.5% RH, 12 days, open flask): Changed
Color and state ([1]; 92.5% RH, 30 days, open flask): White solid
Salt form ([1]; 92.5% RH, 30 days, open flask): Changed
Color and state ([1]; Initial, 0 days): White solid
Salt form ([1]; Initial, 0 days): Crystal form II
Color and state [1, 4]: White solid
Salt form [1, 4]: No change
Color and state [1, 17]: White solid
Salt form [1, 17]: No change
Color and state [1, 6]: White solid
Salt form [1, 6]: No change
chemical stability under high humidity conditions ([1]; high humidity conditions only, 30 days): good
physical stability under high temperature, light exposure, and high humidity (75% RH) conditions ([1]; high temperature, light exposure, high humidity 75% RH only): good
Purity % [2, 8]: 99.6%
Purity % [2, 9]: 99.4%
physical stability ([2]; 25° C./60% RH and 40° C./75% RH, 2 months): relatively good
Purity % [2, 13]: 98.7%
Purity % [2, 14]: 97.7%
Purity % ([2]; Initial): 99.9%
long-term chemical stability ([2]; long-term condition, 2 months): good

CCO[C@H]1C[C@H]2CC[C@@](c3ccc(C(=O)O)cc3)(C1)N2Cc1c(OC)cc(C)c2[nH]ccc12.Cl [crystal form VI of the hydrochloride, 4-((1S,3S,5R)-3-ethoxy-8-((5-methoxy-7-methyl-1H-indol-4-yl)methyl)-8-azabicyclo[3.2.1]octan-1-yl)benzoic acid-hydrochloride]
hygroscopic weight gain under normal storage conditions [3]: about 3.69%
hygroscopic weight gain under accelerated experimental conditions [3]: about 4.12%
hygroscopic weight gain under extreme conditions [3]: about 5.73%
crystal form re-identification after DVS testing [3]: did not change

CCO[C@H]1C[C@H]2CC[C@@](c3ccc(C(=O)O)cc3)(C1)N2Cc1c(OC)cc(C)c2[nH]ccc12.Cl [crystal form V of the hydrochloride, 4-((1S,3S,5R)-3-ethoxy-8-((5-methoxy-7-methyl-1H-indol-4-yl)methyl)-8-azabicyclo[3.2.1]octan-1-yl)benzoic acid-hydrochloride]
hygroscopic weight gain under normal storage conditions [3]: about 6.36%
hygroscopic weight gain under accelerated experimental conditions [3]: about 7.28%
hygroscopic weight gain under extreme conditions [3]: about 8.32%
crystal form re-identification after DVS testing [3]: did not change

CCO[C@H]1C[C@H]2CC[C@@](c3ccc(C(=O)O)cc3)(C1)N2Cc1c(OC)cc(C)c2[nH]ccc12.O=P(O)(O)O [crystal form III of the phosphate, 4-((1S,3S,5R)-3-ethoxy-8-((5-methoxy-7-methyl-1H-indol-4-yl)methyl)-8-azabicyclo[3.2.1]octan-1-yl)benzoic acid-phosphate]
hygroscopic weight gain under normal storage conditions [3]: about 4.7700%
hygroscopic weight gain under accelerated experimental conditions [3]: about 5.440%
hygroscopic weight gain under extreme conditions [3]: about 7.20%
crystal form re-identification after DVS testing [3]: did not change
